Experimental data reported in US20150322406A1, “METHOD FOR REPROGRAMMING SOMATIC CELLS TO PANCREATIC BETA CELLS” (CANCER RESEARCH TECHNOLOGY LIMITED, priority 2012, published 2015).

Tested on: NGN3-HA overexpressed in 293T cells
Test: Western blot analysis of overexpressed NGN3-HA in 293T cells upon GSK3 inhibitor
Assay type: cell-based
Details: HEK293T cells overexpressing NGN3-HA, treated with GSK3β inhibitor; Western blot (FIG. 6b)
Description: (A) Schematic representation of the proposed mechanism of NGN3 degradation by Fbw7. (B) Western Blot analysis of overexpressed NGN3-HA in 293T cells upon GSK3 inhibitor. (C) Schematic representation of NGN3 GSK3 phosphorylation residues and the different NGN3 phospho-mutant construct generated. (D) NGN3-HA/Fbw7-Flag Immunoprecipitation assay using the different NGN3 constructs indicated in C. (E) Western Blot analysis of NGN3 in cells overexpressing the different NGN3 construct indicated in C. HEK293T cells were cultured in DMEM and 10% FBS. Cells were plated at subconfluence and transfected with Lipofectamine Reagent (Invitrogen) following the manufacturer instructions. HEK293T cells lysates or tissues were homogenized in RIPA lysis buffer supplemented with protease inhibitor (Sigma). Immunoblots were carried out as previously described^4. The gels were transferred to nitrocellulose membranes, and the membranes were immunoblotted with various antibodies as indicated: anti-NGN3, anti-flag, anti-HA, and anti-Myc. The conversion of pancreatic ductal cells into β-cells observed in the RFY mice in vivo could be due to up-regulation of substrates involved in beta cell neogenesis in the adult pancreas. […] To test whether Fbw7 had any effect on NGN3 protein stability (see FIG. 6a), a set of in vitro experiments were conducted. […]

Question: Which NGN3 protein stability does the source give for `Cn1cc(C2=C(c3ccc(Cl)cc3Cl)C(=O)NC2=O)c2ccccc21` [SB216763] here?
Answer: increased
